The subject of one experiment is APase promoter. In words: GUS expression in Pr-GUS transformants grown in sand culture (specificity of APase promoter induction). The format is in vivo, Arabidopsis thaliana. Also on record: key to relative GUS expression: “−” (lowest); “+/−,”; “+,”; “++,”; “+++” (highest). The note with it: for relative GUS expression: 100 μM, 14-day-old seedlings. As for the experimental part:
A screening method was developed to evaluate GUS expression levels in the various transformed lines: T2 seedlings were germinated in pots containing fine granules of washed sand (40-100 mesh Fisher Scientific, Pittsburgh, Pa.). To remove trace amounts of contaminating elements, the sand was previously washed by soaking it in 0.1 M HCl for 45 minutes and then washing it extensively with ddH2O until the sand mixture reached pH 6.5. Seedlings were grown in standard phosphorus medium for 14 days before transfer to phosphorus-deficient medium. GUS expression in plants subjected to phosphorus-deficient conditions for 14 days is shown in FIGS. 4A-4D (FIG. 4A—lateral root primordium with localized GUS expression, FIG. 4B—GUS expression in several cell layers of lateral root primordium; FIG. 4C—emerging lateral root meristem; FIG. 4D—lateral root meristems (LRM) and an apical root meristem (ARM)). Seedlings were also germinated in pots containing washed sand, and then fertilized using 0.25×Hoagland's medium with or without phosphorus (0.25 mM), and examined after 10 days. GUS expression in the roots of these seedlings (FIG. 4F) or in the whole seedlings (FIG. 4G—not starved; FIG. 4H—starved) is shown. Phosphorus starvation symptoms were evident 8 days after sowing. Plant expression was examined by staining with x-gluc (i.e., 5-bromo-4-chloro-3-indolyl β-D-glucuronide), as described below, to evaluate GUS expression.
GUS activity was determined according to the method of Jefferson et al., EMBO J. 6:3901-3907 (1987). After staining, tissue was fixed in 1.5% formaldehyde-4% acetic acid-30% ethanol for 30 minutes, dehydrated through a graded ethanol series (50, 95, 100% for 20 minutes at each step), incubated 2 hours at 100% ethanol, and rehydrated through a graded ethanol series (95 and 50%, for 20 minutes each step). Rehydrated tissues were stored in H2O.
Pr-GUS transformants, germinated and grown in sand culture, were used to test the specificity of APase promoter induction by either inducing nutritional deficiencies other than P-limitation or by using such known chemical inducers of gene expression as salicylic acid (Ward et al., Plant Cell 3:1085-1094 (1991)) and jasmonic acids (Staswick, et al., Plant Physiol 96:130-136 (1991), Creelman et al., New Phytol. 75:479-490 (1992)) (Tables 1 and 2). Seedlings were germinated in pots containing washed sand and fertilized with modified 0.25×Hoagland's medium optionally lacking nitrogen (N), potassium (K), or iron (Fe). Nitrogen-free Hoagland's medium was prepared by substituting K2HPO4 for (NH4)2SO4, CaSO4 for Ca(NO3)2 and K2SO4 for KNO3. Potassium-free Hoagland's medium was prepared by substituting NaNO3 for KNO3. Iron deficient medium was prepared by removing Fe-EDTA from the medium composition. Aqueous solutions of salicylic acid (SA), jasmonic acid (JA), and mannose were supplied to 14-day-old seedlings by spraying until solutions ran off the seedlings; approximately 20 ml of 2.5-fold concentrated solution was added to the sand at the same time.
Both chemical inducers were applied at concentrations capable of strongly inducing a variety of plant genes. These treatments were compared to the effects of P removal (Table 1, where “P” is phosphorus, N is nitrogen, K is potassium, and Fe is iron, “+” indicates presence and “−” indicates absence, and relative expression is indicated on a scale of “−” (lowest), “+/−,” “+,” “++,” to “+++” (highest)) or the addition of mannose (Table 2, where is indicated on a scale of “−” (lowest), “+/−,” “+,” “++,” to “+++” (highest)). Mannose is known to induce P deficiency in plant cells by virtue of its ability to bind cellular phosphates as mannose 6-phosphate (Watkins, et al., Plant Physiol. 97:139-146 (1987)), thereby acting as an agent that associates with a phosphorus compound. […] Seventeen days after sowing, the experiment was terminated.

For a further experiment, the system named is acid phosphatase (APase). In words: APase activity in growth medium of B. juncea plants (p-NPP substrate, 410 nm). The settings on record: after 6 days incubation. Type of experiment: in vivo, Brassica juncea. As for the experimental part:
Expression and secretion studies of B. juncea began with the germination of B. juncea seeds in Petri dishes on Gamborg's B-5 (Life Technologies, Gibco BRL, Grand Island, N.Y.) agar medium. Germinated seedlings were then transferred to 20 ml vials containing one-quarter-strength Hoagland's solution (Arnon et al., Soil Sci. 50:463-483 (1940)). Plants were grown in shaker-incubators (25 rpm), at 24° C. under a 16-hour photoperiod, with 150 mE/m^2/s illumination provided by a mixture of fluorescent and incandescent lamps. After 10 days, plants were transferred into 125 ml flasks with 120 ml of 0.25×Hoagland solution containing one of the following concentrations of phosphorus: 3 mM, 1 mM, 0.25 mM or 0.01 mM (i.e., phosphorus deficiency). In the low phosphorus medium, (NH4)2SO4 was substituted for NH4H2PO4. The volume of medium in each flask was adjusted daily to 120 ml and the exudate-containing media were sampled for APase activity.
Unconcentrated media samples were subjected to chromogenic determination at 410 nm. The activity of APase in the growth medium was determined using p-nitrophenyl-1-phosphate (p-NPP, Sigma Chemical Co., St. Louis, Mo.) as substrate and 50 mM Na-acetate buffer, pH 4.6, in a water bath at 37° C. (Ascencio, J., J. Plant Nutr. 20:9-26 (1997)). The reaction was stopped after 1 hour with a 1 M Na2CO3 solution and the yellow p-nitrophenol (PNP) was measured at 410 nm in a DU 640 Spectrophotometer (Beckman Instruments, Columbia, Md.). […] Thus, expression of the exuded A. thaliana APase was de-repressed by phosphorus starvation.

On to `CC/C=C\C[C@H]1C(=O)CC[C@@H]1CC(=O)O` [jasmonic acid], for which the “relative GUS expression” value in the experiment on APase promoter (1 day after treatment), with APase promoter (3 days after treatment), with APase promoter (5 days after treatment) and with APase promoter (7 days after treatment) was “−” in each case.
With `[P]` [phosphorus], the “expression of GUS on addition of phosphorus to the medium” value in the experiment on APase promoter (phosphorus-starved plants) was “diminished”. Besides, the “APase activity in exudate-containing medium” value in the experiment on acid phosphatase (APase) (0.01 mM phosphorus) was ~0.33 A410/(ml-hour); in the experiment with acid phosphatase (APase) (0.25 mM phosphorus) it was ~0.21 A410/(ml-hour); with acid phosphatase (APase) (1 mM phosphorus) it was ~0.09 A410/(ml-hour); in the experiment with acid phosphatase (APase) (3 mM phosphorus), “approximately 0.04 A410/(ml-hour)”.
For the molecule `O=C(O)c1ccccc1O` [salicylic acid], the “relative GUS expression” value was “−” in the experiment on APase promoter (1 day after treatment), “+” with APase promoter (3 days after treatment), “−” in the experiment with APase promoter (5 days after treatment) and “+/−” with APase promoter (7 days after treatment).
